# Source: ChEMBL document CHEMBL6083240, “Design, synthesis and biological evaluation of arylpropylamine derivatives as potential multi-target antidepressants” (Bioorg Med Chem, 2024)
# Active and inactive are the calls of the source. No cut-off for these calls is given here.
# Assays:
# [1] = Tmax in CD1 mouse at 2 mg/kg, iv measured upto 10 hrs by LC-MS analysis; assay type: ADME, organism-based; settings: in vivo
# [2] = system: histamine H1 receptor; experiment: Displacement of [3H]-pyrilamine from H1 receptor in guinea pig cerebellum membrane incubated for 60 mins by liquid scintillation counting method; assay type: toxicity, cell membranes, Cavia porcellus; settings: probe [3H]-pyrilamine
# [3] = target: Histamine H3 receptor (Homo sapiens, UniProt Q9Y5N1); experiment: Binding affinity to H3 receptor (unknown origin)
# Histamine H3 receptor, sequence (Q9Y5N1 whole entry): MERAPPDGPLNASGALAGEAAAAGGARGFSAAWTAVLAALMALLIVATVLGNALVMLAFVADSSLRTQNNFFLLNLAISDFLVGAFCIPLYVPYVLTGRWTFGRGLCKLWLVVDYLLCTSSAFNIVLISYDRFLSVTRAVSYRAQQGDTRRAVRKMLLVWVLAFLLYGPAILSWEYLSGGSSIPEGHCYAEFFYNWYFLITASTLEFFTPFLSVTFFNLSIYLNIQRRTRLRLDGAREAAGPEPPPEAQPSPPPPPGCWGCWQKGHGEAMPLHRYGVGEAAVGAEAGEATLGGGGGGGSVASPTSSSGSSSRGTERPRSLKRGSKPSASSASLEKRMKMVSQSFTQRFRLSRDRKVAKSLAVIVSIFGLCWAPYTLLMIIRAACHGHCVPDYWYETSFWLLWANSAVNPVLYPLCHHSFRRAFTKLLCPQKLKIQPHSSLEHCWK
# [4] = target: Sigma intracellular receptor 2 (Homo sapiens, UniProt Q5BJF2); experiment: Binding affinity to sigma 2 receptor (unknown origin)
# Sigma intracellular receptor 2, sequence (Q5BJF2 whole entry): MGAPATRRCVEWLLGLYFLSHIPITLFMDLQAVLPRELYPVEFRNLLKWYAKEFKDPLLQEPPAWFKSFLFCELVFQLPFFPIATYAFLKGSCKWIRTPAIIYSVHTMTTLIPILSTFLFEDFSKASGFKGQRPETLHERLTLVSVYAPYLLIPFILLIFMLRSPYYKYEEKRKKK
# [5] = target: T1, 5-hydroxytryptamine receptor 2C (Homo sapiens) (UniProt P28335); experiment: Agonist activity at 5-HT2C in HEK293 cells at 10 uM incubated for 60 mins by FLIPR assay relative to control; assay type: functional, cell-based; settings: filed as agonist
# T1 sequence (whole entry): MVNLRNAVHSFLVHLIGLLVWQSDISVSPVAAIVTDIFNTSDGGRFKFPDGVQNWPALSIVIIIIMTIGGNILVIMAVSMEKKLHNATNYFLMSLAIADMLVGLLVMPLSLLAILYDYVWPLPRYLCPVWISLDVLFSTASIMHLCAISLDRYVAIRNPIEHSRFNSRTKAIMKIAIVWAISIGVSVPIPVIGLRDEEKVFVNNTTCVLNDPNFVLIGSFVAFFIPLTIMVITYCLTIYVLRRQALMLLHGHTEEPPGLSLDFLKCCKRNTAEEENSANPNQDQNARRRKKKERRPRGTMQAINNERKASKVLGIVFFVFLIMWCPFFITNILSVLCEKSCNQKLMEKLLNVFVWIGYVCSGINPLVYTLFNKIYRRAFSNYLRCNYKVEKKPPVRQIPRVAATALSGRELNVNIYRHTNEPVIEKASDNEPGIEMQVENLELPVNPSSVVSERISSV
# [6] = target: Muscarinic acetylcholine receptor M5 (Homo sapiens, UniProt P08912); experiment: Binding affinity to M5 receptor (unknown origin)
# Muscarinic acetylcholine receptor M5, sequence (P08912 whole entry): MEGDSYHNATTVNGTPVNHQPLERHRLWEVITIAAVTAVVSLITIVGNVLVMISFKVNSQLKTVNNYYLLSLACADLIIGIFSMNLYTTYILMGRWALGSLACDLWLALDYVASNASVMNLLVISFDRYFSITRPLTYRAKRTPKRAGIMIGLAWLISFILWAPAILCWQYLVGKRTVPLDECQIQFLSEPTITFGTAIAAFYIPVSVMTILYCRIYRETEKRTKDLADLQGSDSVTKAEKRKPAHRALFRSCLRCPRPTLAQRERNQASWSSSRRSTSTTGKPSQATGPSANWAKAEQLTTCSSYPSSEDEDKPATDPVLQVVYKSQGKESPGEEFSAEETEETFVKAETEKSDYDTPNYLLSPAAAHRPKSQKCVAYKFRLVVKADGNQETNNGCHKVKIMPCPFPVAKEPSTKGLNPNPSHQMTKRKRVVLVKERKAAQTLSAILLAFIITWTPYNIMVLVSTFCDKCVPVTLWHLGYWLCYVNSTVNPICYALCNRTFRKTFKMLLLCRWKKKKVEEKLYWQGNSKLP
# [7] = system: Rattus norvegicus; experiment: Antidepressant activity against ACTH-induced treatment resistant depression in Sprague-Dawley rat model assessed as reduction in immobility time at 20 to 40 mg/kg, IG by forced swimming test; assay type: functional, organism-based; settings: dose 20-40 mg/kg
# [8] = target: Muscarinic acetylcholine receptor M3 (Homo sapiens, UniProt P20309); experiment: Binding affinity to M3 receptor (unknown origin)
# Muscarinic acetylcholine receptor M3, sequence (P20309 whole entry): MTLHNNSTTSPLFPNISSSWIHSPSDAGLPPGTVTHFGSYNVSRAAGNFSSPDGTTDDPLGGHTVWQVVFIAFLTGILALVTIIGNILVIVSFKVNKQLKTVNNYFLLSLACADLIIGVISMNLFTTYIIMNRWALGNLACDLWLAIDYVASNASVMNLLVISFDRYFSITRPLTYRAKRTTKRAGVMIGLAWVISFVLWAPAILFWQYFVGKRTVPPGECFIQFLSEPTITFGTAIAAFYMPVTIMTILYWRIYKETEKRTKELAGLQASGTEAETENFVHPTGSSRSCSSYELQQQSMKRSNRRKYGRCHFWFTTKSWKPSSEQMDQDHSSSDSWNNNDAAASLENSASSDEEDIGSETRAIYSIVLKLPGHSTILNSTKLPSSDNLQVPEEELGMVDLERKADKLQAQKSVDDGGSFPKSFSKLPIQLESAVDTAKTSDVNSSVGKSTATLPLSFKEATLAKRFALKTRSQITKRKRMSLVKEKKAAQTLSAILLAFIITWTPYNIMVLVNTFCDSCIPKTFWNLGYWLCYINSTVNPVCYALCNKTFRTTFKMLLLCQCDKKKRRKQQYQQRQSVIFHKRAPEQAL
# [9] = system: Mus musculus; experiment: (§1) In vivo inhibition of 5-HT2A in po dosed DOI-induced Kunming mouse assessed as reduction in head twitch response pretreated for 60 mins followed by DOI induction and measured for 20 mins; assay type: functional; settings: time 80.0 min
# [10] = as §1; assay type: functional; settings: 1.333 h, time 80 min
# [11] = target: 5-hydroxytryptamine receptor 6 (Homo sapiens, UniProt P50406); experiment: Binding affinity to 5-HT6 receptor (unknown origin)
# 5-hydroxytryptamine receptor 6, sequence (P50406 whole entry): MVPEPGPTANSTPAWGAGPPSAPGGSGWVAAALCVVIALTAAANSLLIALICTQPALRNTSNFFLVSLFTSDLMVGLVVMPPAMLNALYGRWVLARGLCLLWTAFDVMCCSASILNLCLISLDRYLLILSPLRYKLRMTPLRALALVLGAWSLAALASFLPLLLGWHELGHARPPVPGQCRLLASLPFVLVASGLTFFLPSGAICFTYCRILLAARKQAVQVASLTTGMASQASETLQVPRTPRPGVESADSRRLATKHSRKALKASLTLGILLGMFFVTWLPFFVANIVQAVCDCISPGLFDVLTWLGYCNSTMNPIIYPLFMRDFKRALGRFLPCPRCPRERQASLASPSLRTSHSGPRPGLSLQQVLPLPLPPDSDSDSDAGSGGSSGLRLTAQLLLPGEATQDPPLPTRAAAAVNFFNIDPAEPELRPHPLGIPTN
# [12] = AUC(0 to infinity) in CD1 mouse at 15 mg/kg, po measured upto 24 hrs by LC-MS analysis; assay type: ADME, organism-based; settings: in vivo
# [13] = AUC(0 to t) in CD1 mouse at 15 mg/kg, po measured upto 24 hrs by LC-MS analysis; assay type: ADME, organism-based; settings: in vivo
# [14] = target: Muscarinic acetylcholine receptor M4 (Homo sapiens, UniProt P08173); experiment: Binding affinity to M4 receptor (unknown origin)
# Muscarinic acetylcholine receptor M4, sequence (P08173 whole entry): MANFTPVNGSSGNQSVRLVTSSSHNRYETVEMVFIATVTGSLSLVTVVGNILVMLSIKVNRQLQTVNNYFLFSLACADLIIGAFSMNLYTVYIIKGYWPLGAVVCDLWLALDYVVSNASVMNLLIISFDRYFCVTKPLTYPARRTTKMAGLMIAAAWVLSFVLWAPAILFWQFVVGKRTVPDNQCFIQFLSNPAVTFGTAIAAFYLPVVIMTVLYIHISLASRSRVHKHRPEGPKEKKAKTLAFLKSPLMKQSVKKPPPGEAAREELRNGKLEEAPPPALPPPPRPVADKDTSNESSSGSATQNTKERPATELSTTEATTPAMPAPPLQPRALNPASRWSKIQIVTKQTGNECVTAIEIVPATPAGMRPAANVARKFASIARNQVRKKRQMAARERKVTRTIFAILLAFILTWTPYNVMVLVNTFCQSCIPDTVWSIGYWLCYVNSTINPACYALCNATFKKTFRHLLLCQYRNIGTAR
# [15] = target: Histamine H4 receptor (Homo sapiens, UniProt Q9H3N8); experiment: Binding affinity to H4 receptor (unknown origin)
# Histamine H4 receptor, sequence (Q9H3N8 whole entry): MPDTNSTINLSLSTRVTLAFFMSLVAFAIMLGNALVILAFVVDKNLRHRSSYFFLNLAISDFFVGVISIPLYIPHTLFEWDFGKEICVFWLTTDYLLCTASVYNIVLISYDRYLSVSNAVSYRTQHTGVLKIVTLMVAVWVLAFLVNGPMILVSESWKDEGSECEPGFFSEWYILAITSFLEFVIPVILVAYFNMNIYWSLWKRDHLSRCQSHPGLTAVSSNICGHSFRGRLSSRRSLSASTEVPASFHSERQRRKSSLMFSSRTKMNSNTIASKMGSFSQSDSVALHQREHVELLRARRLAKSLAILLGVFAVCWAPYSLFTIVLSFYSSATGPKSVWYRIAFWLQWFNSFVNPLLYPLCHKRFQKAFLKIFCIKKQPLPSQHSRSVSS
# [16] = target: D(3) dopamine receptor (Homo sapiens, UniProt P35462); experiment: Binding affinity to D3 receptor (unknown origin)
# D(3) dopamine receptor, sequence (P35462 whole entry): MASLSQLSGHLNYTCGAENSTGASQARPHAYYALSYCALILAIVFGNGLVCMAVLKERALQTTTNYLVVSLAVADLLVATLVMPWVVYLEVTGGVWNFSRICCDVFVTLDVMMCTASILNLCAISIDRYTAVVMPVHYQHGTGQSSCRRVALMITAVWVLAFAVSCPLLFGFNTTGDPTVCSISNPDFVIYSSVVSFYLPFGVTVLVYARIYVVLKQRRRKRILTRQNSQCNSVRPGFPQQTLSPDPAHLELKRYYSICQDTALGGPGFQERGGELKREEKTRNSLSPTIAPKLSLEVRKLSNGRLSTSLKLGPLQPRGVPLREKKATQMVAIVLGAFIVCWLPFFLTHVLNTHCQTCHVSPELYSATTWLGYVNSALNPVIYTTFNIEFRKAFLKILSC
# [17] = system: Mus musculus; experiment: Antidepressant activity in Kunming mouse assessed as effect on spontaneous locomotor activity by measuring total travel distance at 7.5 to 60 mg/kg, po administered for 60 mins and measured for 15 mins; assay type: functional, organism-based; settings: dose lower […], dose upper 60.0 mg/kg
# [18] = target: T2, 5-hydroxytryptamine receptor 2A (Homo sapiens, UniProt P28223); experiment: Agonist activity at 5-HT2A in HEK293 cells at 10 uM incubated for 60 mins by FLIPR assay relative to control; assay type: functional, cell-based; settings: filed as agonist
# T2 sequence (P28223 whole entry): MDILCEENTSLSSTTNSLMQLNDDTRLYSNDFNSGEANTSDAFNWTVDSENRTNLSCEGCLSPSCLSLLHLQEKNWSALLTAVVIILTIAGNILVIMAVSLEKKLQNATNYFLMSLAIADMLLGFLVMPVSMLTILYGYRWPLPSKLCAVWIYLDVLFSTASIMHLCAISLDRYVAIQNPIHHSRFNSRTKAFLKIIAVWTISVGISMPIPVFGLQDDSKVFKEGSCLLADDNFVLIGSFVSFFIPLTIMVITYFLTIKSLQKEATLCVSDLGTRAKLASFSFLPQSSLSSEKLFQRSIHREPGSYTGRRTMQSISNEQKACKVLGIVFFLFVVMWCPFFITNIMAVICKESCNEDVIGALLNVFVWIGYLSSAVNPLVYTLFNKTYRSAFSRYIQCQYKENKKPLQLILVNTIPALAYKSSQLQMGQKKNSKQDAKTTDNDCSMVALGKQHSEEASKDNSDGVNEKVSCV
# [19] = system: Mus musculus; experiment: Antidepressant activity in Kunming mouse chronic unpredictable mild stress model assessed as increase in sucrose preference at 4 mg/kg, IG measured after 2 weeks; assay type: functional, organism-based
# [20] = target: Sodium-dependent serotonin transporter (Rattus norvegicus) (UniProt P31652); experiment: Antagonist activity at rat cerebral cortex membrane SERT at 10 uM incubated for 10 mins in presence of [3H]5-HT relative to control; assay type: cell membranes; design: scale not given: the % may be the effect or the level left; settings: filed as antagonist
# [21] = target: Histamine H2 receptor (Homo sapiens, UniProt P25021); experiment: Binding affinity to H2 receptor (unknown origin)
# Histamine H2 receptor, sequence (P25021 whole entry): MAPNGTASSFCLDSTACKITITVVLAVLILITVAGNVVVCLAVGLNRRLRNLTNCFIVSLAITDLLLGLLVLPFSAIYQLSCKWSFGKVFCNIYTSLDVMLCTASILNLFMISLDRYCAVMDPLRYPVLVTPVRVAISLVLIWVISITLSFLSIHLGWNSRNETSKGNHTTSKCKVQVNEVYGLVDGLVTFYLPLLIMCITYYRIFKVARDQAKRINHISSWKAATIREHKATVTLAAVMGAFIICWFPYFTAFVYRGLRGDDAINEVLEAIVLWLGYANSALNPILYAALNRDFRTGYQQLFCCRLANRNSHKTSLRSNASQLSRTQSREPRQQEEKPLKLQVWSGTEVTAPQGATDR
# [22] = target: Sodium-dependent serotonin transporter (Rattus norvegicus, UniProt P31652); experiment: Displacement of [3H]-paroxetine from SERT in rat cerebral cortex incubated for 10 mins by liquid scintillation counting method; assay type: tissue-based
# [23] = target: Voltage-gated inwardly rectifying potassium channel KCNH2 (Homo sapiens, UniProt Q12809); experiment: Inhibition of human ERG expressed in HEK293 cells by whole-cell patch clamp method; assay type: toxicity, cell-based
# [24] = target: Sigma non-opioid intracellular receptor 1 (Homo sapiens, UniProt Q99720); experiment: Binding affinity to sigma 1 receptor (unknown origin)
# [25] = target: T2, 5-hydroxytryptamine receptor 2A; experiment: Antagonist activity at 5-HT2A in HEK293 cells at 10 uM incubated for 60 mins by FLIPR assay relative to control; assay type: cell-based; design: scale not given: the % may be the effect or the level left; settings: filed as antagonist
# [26] = target: Sodium-dependent dopamine transporter (Homo sapiens, UniProt Q01959); experiment: Binding affinity to DAT (unknown origin)
# Sodium-dependent dopamine transporter, sequence (Q01959 whole entry): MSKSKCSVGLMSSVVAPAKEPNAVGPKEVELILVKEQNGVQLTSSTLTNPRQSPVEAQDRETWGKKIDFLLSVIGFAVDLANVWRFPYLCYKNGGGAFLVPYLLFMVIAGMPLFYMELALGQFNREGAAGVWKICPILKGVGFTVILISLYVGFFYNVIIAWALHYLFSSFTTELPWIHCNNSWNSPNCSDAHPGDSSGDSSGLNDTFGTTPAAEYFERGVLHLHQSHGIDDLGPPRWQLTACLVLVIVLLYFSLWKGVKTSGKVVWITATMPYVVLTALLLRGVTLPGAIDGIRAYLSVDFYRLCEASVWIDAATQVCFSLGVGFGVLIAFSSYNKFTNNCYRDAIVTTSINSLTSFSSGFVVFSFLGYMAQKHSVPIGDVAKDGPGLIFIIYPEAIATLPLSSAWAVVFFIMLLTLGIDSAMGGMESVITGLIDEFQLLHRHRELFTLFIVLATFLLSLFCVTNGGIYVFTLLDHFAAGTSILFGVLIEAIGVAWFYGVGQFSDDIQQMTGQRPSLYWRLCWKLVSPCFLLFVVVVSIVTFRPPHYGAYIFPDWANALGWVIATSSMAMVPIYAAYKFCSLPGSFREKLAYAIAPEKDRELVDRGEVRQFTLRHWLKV
# [27] = target: 5-hydroxytryptamine receptor 2A (Rattus norvegicus, UniProt P14842); experiment: Displacement of [3H]-ketanserin from 5-HT2A in rat cerebral cortex incubated for 15 mins by liquid scintillation counting method; assay type: tissue-based
# [28] = target: T2, 5-hydroxytryptamine receptor 2A; experiment: Antagonist activity at 5-HT2A in HEK293 cells incubated for 60 mins by FLIPR assay; assay type: cell-based
# [29] = system: Mus musculus; experiment: Antidepressant activity in Kunming mouse chronic unpredictable mild stress model assessed as increase in sucrose preference at 2 to 6 mg/kg, IG measured after 3 weeks; assay type: functional, organism-based; settings: dose 2-6 mg/kg
# [30] = MRTlast in CD1 mouse at 15 mg/kg, po measured upto 24 hrs by LC-MS analysis; assay type: ADME, organism-based; settings: in vivo
compound,measurement,setting,value
CN(C)CC[C@@H](Oc1cccc2c1OCO2)c1ccc(F)cc1.O=C(O)C(=O)O,Tmax,[1],4.8 min
same,Ki at 60 min,[2],1000 nM
same,Ki,[3],> 1000 nM
same,Ki,[4],> 1000 nM
same,Activity,[5],18.1%
same,Ki,[6],> 1000 nM
same,Activity,[7],Active
same,Ki,[8],> 1000 nM
same,Activity,[9],Dose-dependent-effect
same,ED50,[10],1.07 mg/kg
same,Ki,[11],> 1000 nM
same,AUC(0-inf),[12],474 ng·h/mL
same,AUC(0-t) at 24 h,[13],462 ng·h/mL
same,Ki,[14],> 1000 nM
same,Ki,[15],> 1000 nM
same,Ki,[16],> 1000 nM
same,Activity,[17],inactive
same,Activity,[18],103%
same,Activity,[19],Active
same,Activity,[20],99.7%
same,Ki,[21],> 1000 nM
same,Ki,[22],5.8 nM
same,IC50,[23],1230 nM
same,Ki,[24],> 1000 nM
same,Activity,[25],100%
same,Ki,[26],> 1000 nM
same,Ki,[27],26.4 nM
same,IC50,[28],36.1 nM
same,Activity,[29],Active
same,MRT last at 24 h,[30],3.1 h
